We go through two compounds from PubChem BioAssay AID743330 (NMMLSC, 2014).

For orientation: EC50 means the midpoint of the concentration-response curve. Low readings indicate a more potent agent, high ones a less potent agent.

Among the targets are Cdc42 mutant; Cdc42; Rab7; Ras.
What all share (experiment): fluorescent GTP concentration effect on GTPase potency – biochemical, four GTPases, bead flow cytometry, mechanism study, profiling panel (AID 743330)
Common to all, as to conditions: bead-based flow cytometry, fluorescent GTP binding to GTPases

For `CC1(C)Cc2c(sc(NC(=S)NC(=O)c3ccc(F)cc3)c2C(=O)O)CO1`, the EC50 amounted to 120 nM at Cdc42 mutant (EC50 at 25 nM fluorescent GTP); 977 nM at Cdc42 mutant (EC50 at 100 nM fluorescent GTP); 248 nM at Cdc42 (EC50 at 25 nM fluorescent GTP); 1040 nM on Cdc42 (EC50 at 100 nM fluorescent GTP); 55 nM on Rab7 (EC50 at 25 nM fluorescent GTP); 479 nM at Rab7 (EC50 at 100 nM fluorescent GTP). In addition, the EC50 turned out to be 66 nM at Ras (EC50 at 25 nM fluorescent GTP) and 444 nM on Ras (EC50 at 100 nM fluorescent GTP).

On to `CCC1(C)Cc2c(sc(NC(=S)NC(=O)c3ccccc3)c2C(=O)O)CO1` (stereo not given), for which the EC50 worked out at 12 nM on Cdc42 mutant (EC50 at 25 nM fluorescent GTP); 27 nM at Cdc42 mutant (EC50 at 100 nM fluorescent GTP); 20 nM at Cdc42 (EC50 at 100 nM fluorescent GTP); 8 nM at Rab7 (EC50 at 25 nM fluorescent GTP); 29 nM on Rab7 (EC50 at 100 nM fluorescent GTP); 6 nM on Ras (EC50 at 25 nM fluorescent GTP). Moreover, at Ras (EC50 at 100 nM fluorescent GTP), the EC50 worked out at 23 nM.
